Measurements reported in the NIST ThermoML archive (doi:10.1021/acs.jced.7b00773).

Conditions: Liquid; for viscosity: Concentric cylinders viscometry

C=CCn1cc[n+](C)c1.O=S(=O)([N-]S(=O)(=O)C(F)(F)F)C(F)(F)F
100 kPa
Conditions	viscosity [mPa·s]
293.15 K	40.69
303.15 K	28.08
313.15 K	20.31
323.15 K	15.29
333.15 K	11.91
343.15 K	9.52
353.15 K	7.783
363.15 K	6.489
373.15 K	5.498

Conditions	mass density [kg/m3]
293.15 K, 100 kPa, Vibrating tube method	1506.1
303.15 K, 100 kPa, Vibrating tube method	1496
312.5 K, 10000 kPa, Bellows volumetry	1493.8
312.5 K, 20000 kPa, Bellows volumetry	1501.1
312.5 K, 30000 kPa, Bellows volumetry	1508
312.5 K, 40000 kPa, Bellows volumetry	1514.7
312.5 K, 50000 kPa, Bellows volumetry	1521
312.5 K, 60000 kPa, Bellows volumetry	1527.1
312.5 K, 70000 kPa, Bellows volumetry	1533.1
312.5 K, 80000 kPa, Bellows volumetry	1538.8
312.5 K, 90000 kPa, Bellows volumetry	1544.2
312.5 K, 100000 kPa, Bellows volumetry	1549.5
312.5 K, 110000 kPa, Bellows volumetry	1554.7
312.5 K, 120000 kPa, Bellows volumetry	1559.7
312.5 K, 130000 kPa, Bellows volumetry	1564.7
312.5 K, 140000 kPa, Bellows volumetry	1569.4
312.5 K, 150000 kPa, Bellows volumetry	1574
312.5 K, 160000 kPa, Bellows volumetry	1578.6
312.5 K, 170000 kPa, Bellows volumetry	1583.2
312.5 K, 180000 kPa, Bellows volumetry	1587.5
312.5 K, 190000 kPa, Bellows volumetry	1591.8
312.5 K, 200000 kPa, Bellows volumetry	1596
313.15 K, 100 kPa, Vibrating tube method	1486
323.15 K, 100 kPa, Vibrating tube method	1476
332.3 K, 10000 kPa, Bellows volumetry	1474.5
332.3 K, 20000 kPa, Bellows volumetry	1482.1
332.3 K, 30000 kPa, Bellows volumetry	1489.6
332.3 K, 40000 kPa, Bellows volumetry	1496.7
332.3 K, 50000 kPa, Bellows volumetry	1503.4
332.3 K, 60000 kPa, Bellows volumetry	1509.7
332.3 K, 70000 kPa, Bellows volumetry	1515.8
332.3 K, 80000 kPa, Bellows volumetry	1521.7
332.3 K, 90000 kPa, Bellows volumetry	1527.3
332.3 K, 100000 kPa, Bellows volumetry	1533
332.3 K, 110000 kPa, Bellows volumetry	1538.5
332.3 K, 120000 kPa, Bellows volumetry	1543.8
332.3 K, 130000 kPa, Bellows volumetry	1548.9
332.3 K, 140000 kPa, Bellows volumetry	1553.7
332.3 K, 150000 kPa, Bellows volumetry	1558.5
332.3 K, 160000 kPa, Bellows volumetry	1563.3
332.3 K, 170000 kPa, Bellows volumetry	1568
332.3 K, 180000 kPa, Bellows volumetry	1572.5
332.3 K, 190000 kPa, Bellows volumetry	1576.9
332.3 K, 200000 kPa, Bellows volumetry	1581.4
333.15 K, 100 kPa, Vibrating tube method	1466.1
343.15 K, 100 kPa, Vibrating tube method	1456.3
352.4 K, 10000 kPa, Bellows volumetry	1455.3
352.4 K, 20000 kPa, Bellows volumetry	1463.6
352.4 K, 30000 kPa, Bellows volumetry	1471.5
352.4 K, 40000 kPa, Bellows volumetry	1479
352.4 K, 50000 kPa, Bellows volumetry	1486.1
352.4 K, 60000 kPa, Bellows volumetry	1492.9
352.4 K, 70000 kPa, Bellows volumetry	1499.3
352.4 K, 80000 kPa, Bellows volumetry	1505.6
352.4 K, 90000 kPa, Bellows volumetry	1511.4
352.4 K, 100000 kPa, Bellows volumetry	1517.2
352.4 K, 110000 kPa, Bellows volumetry	1522.8
352.4 K, 120000 kPa, Bellows volumetry	1528.3
352.4 K, 130000 kPa, Bellows volumetry	1533.5
352.4 K, 140000 kPa, Bellows volumetry	1538.7
352.4 K, 150000 kPa, Bellows volumetry	1543.7
352.4 K, 160000 kPa, Bellows volumetry	1548.5
352.4 K, 170000 kPa, Bellows volumetry	1553.3
352.4 K, 180000 kPa, Bellows volumetry	1558
352.4 K, 190000 kPa, Bellows volumetry	1562.6
352.4 K, 200000 kPa, Bellows volumetry	1567.1
353.15 K, 100 kPa, Vibrating tube method	1446.5
363.15 K, 100 kPa, Vibrating tube method	1436.8
372.5 K, 10000 kPa, Bellows volumetry	1436.7
372.5 K, 20000 kPa, Bellows volumetry	1445.3
372.5 K, 30000 kPa, Bellows volumetry	1453.7
372.5 K, 40000 kPa, Bellows volumetry	1461.6
372.5 K, 50000 kPa, Bellows volumetry	1469.1
372.5 K, 60000 kPa, Bellows volumetry	1476.1
372.5 K, 70000 kPa, Bellows volumetry	1482.9
372.5 K, 80000 kPa, Bellows volumetry	1489.5
372.5 K, 90000 kPa, Bellows volumetry	1495.6
372.5 K, 100000 kPa, Bellows volumetry	1501.6
372.5 K, 110000 kPa, Bellows volumetry	1507.5
372.5 K, 120000 kPa, Bellows volumetry	1513.3
372.5 K, 130000 kPa, Bellows volumetry	1518.7
372.5 K, 140000 kPa, Bellows volumetry	1524
372.5 K, 150000 kPa, Bellows volumetry	1529.2
372.5 K, 160000 kPa, Bellows volumetry	1534.2
372.5 K, 170000 kPa, Bellows volumetry	1539.1
372.5 K, 180000 kPa, Bellows volumetry	1544
372.5 K, 190000 kPa, Bellows volumetry	1548.6
372.5 K, 200000 kPa, Bellows volumetry	1553.4
373.15 K, 100 kPa, Vibrating tube method	1427.3
392.8 K, 10000 kPa, Bellows volumetry	1417.8
392.8 K, 20000 kPa, Bellows volumetry	1427.3
392.8 K, 30000 kPa, Bellows volumetry	1436.1
392.8 K, 40000 kPa, Bellows volumetry	1444.4
392.8 K, 50000 kPa, Bellows volumetry	1452.4
392.8 K, 60000 kPa, Bellows volumetry	1459.8
392.8 K, 70000 kPa, Bellows volumetry	1466.9
392.8 K, 80000 kPa, Bellows volumetry	1473.7
392.8 K, 90000 kPa, Bellows volumetry	1480.1
392.8 K, 100000 kPa, Bellows volumetry	1486.5
392.8 K, 110000 kPa, Bellows volumetry	1492.5
392.8 K, 120000 kPa, Bellows volumetry	1498.5
392.8 K, 130000 kPa, Bellows volumetry	1504.2
392.8 K, 140000 kPa, Bellows volumetry	1509.6
392.8 K, 150000 kPa, Bellows volumetry	1514.9
392.8 K, 160000 kPa, Bellows volumetry	1520.2
392.8 K, 170000 kPa, Bellows volumetry	1525.3
392.8 K, 180000 kPa, Bellows volumetry	1530.2
392.8 K, 190000 kPa, Bellows volumetry	1535.1
392.8 K, 200000 kPa, Bellows volumetry	1539.9
413.1 K, 10000 kPa, Bellows volumetry	1399.4
413.1 K, 20000 kPa, Bellows volumetry	1409.4
413.1 K, 30000 kPa, Bellows volumetry	1418.9
413.1 K, 40000 kPa, Bellows volumetry	1427.7
413.1 K, 50000 kPa, Bellows volumetry	1436
413.1 K, 60000 kPa, Bellows volumetry	1443.8
413.1 K, 70000 kPa, Bellows volumetry	1451.3
413.1 K, 80000 kPa, Bellows volumetry	1458.4
413.1 K, 90000 kPa, Bellows volumetry	1465.2
413.1 K, 100000 kPa, Bellows volumetry	1471.7
413.1 K, 110000 kPa, Bellows volumetry	1478
413.1 K, 120000 kPa, Bellows volumetry	1484.2
413.1 K, 130000 kPa, Bellows volumetry	1490
413.1 K, 140000 kPa, Bellows volumetry	1495.8
413.1 K, 150000 kPa, Bellows volumetry	1501.3
413.1 K, 160000 kPa, Bellows volumetry	1506.6
413.1 K, 170000 kPa, Bellows volumetry	1511.8
413.1 K, 180000 kPa, Bellows volumetry	1516.9
413.1 K, 190000 kPa, Bellows volumetry	1521.8
413.1 K, 200000 kPa, Bellows volumetry	1526.8
432.7 K, 10000 kPa, Bellows volumetry	1381.4
432.7 K, 20000 kPa, Bellows volumetry	1392
432.7 K, 30000 kPa, Bellows volumetry	1401.8
432.7 K, 40000 kPa, Bellows volumetry	1411.1
432.7 K, 50000 kPa, Bellows volumetry	1419.9
432.7 K, 60000 kPa, Bellows volumetry	1428
432.7 K, 70000 kPa, Bellows volumetry	1435.9
432.7 K, 80000 kPa, Bellows volumetry	1443.4
432.7 K, 90000 kPa, Bellows volumetry	1450.5
432.7 K, 100000 kPa, Bellows volumetry	1457.2
432.7 K, 110000 kPa, Bellows volumetry	1463.7
432.7 K, 120000 kPa, Bellows volumetry	1470.1
432.7 K, 130000 kPa, Bellows volumetry	1476.1
432.7 K, 140000 kPa, Bellows volumetry	1482
432.7 K, 150000 kPa, Bellows volumetry	1487.7
432.7 K, 160000 kPa, Bellows volumetry	1493.2
432.7 K, 170000 kPa, Bellows volumetry	1498.6
432.7 K, 180000 kPa, Bellows volumetry	1503.9
432.7 K, 190000 kPa, Bellows volumetry	1508.9
432.7 K, 200000 kPa, Bellows volumetry	1514
